Results taken from the NIST ThermoML archive (doi:10.1016/j.jct.2008.08.007).

Experiment: molar heat capacity at constant pressure
Details: 101.33 kPa, Crystal

O=CC[C@H](O)[C@H](O)CO [2-deoxy-D-erythropentose]
Small sample (50 mg) DSC
Details	molar heat capacity at constant pressure [J/K/mol]
288.15 K	171.9
293.15 K	167.6
298.15 K	162
303.15 K	163.6
308.15 K	171.7
313.15 K	178.4
318.15 K	184.1
323.15 K	197.4
328.15 K	222

OC[C@H]1OC(O)C[C@@H](O)[C@@H]1O (stereo partly drawn) [2-deoxy-D-glucose]
Small sample (50 mg) DSC
Details	molar heat capacity at constant pressure [J/K/mol]
288.15 K	189.6
293.15 K	195.8
298.15 K	200.2
303.15 K	201
308.15 K	204.5
313.15 K	206.9
318.15 K	209
323.15 K	213.6
328.15 K	214.7
333.15 K	218.4
338.15 K	224.9
343.15 K	226.4
348.15 K	233
353.15 K	235.4
358.15 K	244

O=C[C@H](O)[C@@H](O)[C@@H](O)[C@H](O)CO [(+)-galactose]
Small sample (50 mg) DSC
Details	molar heat capacity at constant pressure [J/K/mol]
288.15 K	203.3
293.15 K	210.7
298.15 K	213.7
303.15 K	217.5
308.15 K	222.3
313.15 K	227.1
318.15 K	229.4
323.15 K	235.6
328.15 K	236.8
333.15 K	242.8
338.15 K	247
343.15 K	251.2
348.15 K	254.7
353.15 K	257.5
358.15 K	265.1

OC[C@H]1O[C@@H](O[C@H]2[C@H](O)[C@@H](O)[C@H](O)O[C@@H]2CO)[C@H](O)[C@@H](O)[C@@H]1O [D-cellobiose]
Small sample (50 mg) DSC
Details	molar heat capacity at constant pressure [J/K/mol]
288.15 K	407.8
293.15 K	431
298.15 K	436.1
303.15 K	445
308.15 K	443.1
313.15 K	446.9
318.15 K	448.7
323.15 K	463.2
328.15 K	463.5
333.15 K	473.1
338.15 K	481.1
343.15 K	490.7
348.15 K	503.2
353.15 K	515.8
358.15 K	534.8

O=C(CO)[C@@H](O)[C@H](O)[C@H](O)CO [D-fructose]
Small sample (50 mg) DSC
Details	molar heat capacity at constant pressure [J/K/mol]
288.15 K	220.3
293.15 K	223.6
298.15 K	227.7
303.15 K	233.3
308.15 K	236.9
313.15 K	242.4
318.15 K	247.3
323.15 K	251.5
328.15 K	251.8
333.15 K	255.1
338.15 K	259.6
343.15 K	260.9
348.15 K	266.4
353.15 K	275.3
358.15 K	290.4

O=C[C@@H](O)[C@@H](O)[C@H](O)[C@H](O)CO [D-mannose]
Small sample (50 mg) DSC
Details	molar heat capacity at constant pressure [J/K/mol]
288.15 K	188.7
293.15 K	200.7
298.15 K	206.6
303.15 K	215
308.15 K	223.3
313.15 K	228.2
318.15 K	231.6
323.15 K	234.5
328.15 K	236.5
333.15 K	242.1
338.15 K	245.2
343.15 K	249
348.15 K	252.4
353.15 K	254.1
358.15 K	260.2

O=C[C@H](O)[C@H](O)[C@H](O)CO [D-ribose]
Small sample (50 mg) DSC
Details	molar heat capacity at constant pressure [J/K/mol]
288.15 K	171.3
293.15 K	179.4
298.15 K	183.2
303.15 K	188.8
308.15 K	193.9
313.15 K	201.3
318.15 K	209
323.15 K	224.6
328.15 K	245.1

OC[C@H]1O[C@@](CO)(O[C@H]2O[C@H](CO)[C@@H](O)[C@H](O)[C@H]2O)[C@@H](O)[C@@H]1O [D-sucrose]
Small sample (50 mg) DSC
Details	molar heat capacity at constant pressure [J/K/mol]
288.15 K	408.5
293.15 K	416.6
298.15 K	424.3
303.15 K	429.4
308.15 K	437.5
313.15 K	445.5
318.15 K	451
323.15 K	466.2
328.15 K	472.6
333.15 K	482.5
338.15 K	490.3
343.15 K	498.8
348.15 K	506.7
353.15 K	513.9
358.15 K	522

CC(=O)N[C@@H](C=O)[C@@H](O)[C@H](O)[C@H](O)CO [N-acetyl-D-glucosamine]
Small sample (50 mg) DSC
Details	molar heat capacity at constant pressure [J/K/mol]
288.15 K	269.8
293.15 K	276.4
298.15 K	276.9
303.15 K	278
308.15 K	283.3
313.15 K	281
318.15 K	281.4
323.15 K	292.7
328.15 K	293.1
333.15 K	299.4
338.15 K	303.8
343.15 K	308.7
348.15 K	319.7
353.15 K	325.2
358.15 K	332

O=C[C@H](O)[C@@H](O)[C@H](O[C@H]1O[C@H](CO)[C@@H](O[C@H]2O[C@H](CO)[C@@H](O)[C@H](O)[C@H]2O)[C@H](O)[C@H]1O)[C@H](O)CO [maltotriose]
Small sample (50 mg) DSC
Details	molar heat capacity at constant pressure [J/K/mol]
288.15 K	638.3
293.15 K	654
298.15 K	662.5
303.15 K	662.7
308.15 K	666.3
313.15 K	676.9
318.15 K	683.9
323.15 K	698.2
328.15 K	707.4
333.15 K	718.6
338.15 K	736.3
343.15 K	753.8
348.15 K	773.2
353.15 K	787.3
358.15 K	823.7

CO[C@H]1O[C@H](CO)[C@@H](O)[C@H](O)[C@H]1O [methyl-α-D-glucopyranoside]
Small sample (50 mg) DSC
Details	molar heat capacity at constant pressure [J/K/mol]
288.15 K	232.1
293.15 K	231
298.15 K	233.7
303.15 K	235.7
308.15 K	240.7
313.15 K	247.5
318.15 K	255.9
323.15 K	264.7
328.15 K	274.2
333.15 K	283.6
338.15 K	293.4
343.15 K	302.9
348.15 K	311.5
353.15 K	319
358.15 K	325.5

O[C@@H]1[C@@H](O)[C@@H](O)OC[C@H]1O [xylopyranose, α-D-]
Vacuum adiabatic calorimetry
Details	molar heat capacity at constant pressure [J/K/mol]
288.15 K	178.3
293.15 K	180.9
298.15 K	180.4
303.15 K	182.8
308.15 K	185.7
313.15 K	185.8
318.15 K	187.3
323.15 K	190.4
328.15 K	192
333.15 K	192.6
338.15 K	195.7
343.15 K	200
348.15 K	204.6
353.15 K	209.4
358.15 K	213.8

OC[C@H]1O[C@H](O)[C@H](O)[C@@H](O)[C@@H]1O [α-D-glucose]
Small sample (50 mg) DSC
Details	molar heat capacity at constant pressure [J/K/mol]
288.15 K	210.2
293.15 K	214.8
298.15 K	219.9
303.15 K	222.8
308.15 K	226.5
313.15 K	232.6
318.15 K	235.8
323.15 K	240.5
328.15 K	242.1
333.15 K	246.2
338.15 K	250.5
343.15 K	255.2
348.15 K	260.4
353.15 K	262.4
358.15 K	267.7

O.OC[C@H]1O[C@@H](O[C@H]2[C@H](O)[C@@H](O)[C@@H](O)O[C@@H]2CO)[C@H](O)[C@@H](O)[C@H]1O [α-D-lactose hydrate]
Small sample (50 mg) DSC
Details	molar heat capacity at constant pressure [J/K/mol]
288.15 K	400.9
293.15 K	426.9
298.15 K	435.8
303.15 K	440.7
308.15 K	446.4
313.15 K	450
318.15 K	452.2
323.15 K	459.8
328.15 K	464.5
333.15 K	468.3
338.15 K	477.1
343.15 K	488.2
348.15 K	497.7
353.15 K	506.8
358.15 K	522.7

OC[C@H]1O[C@@H]2O[C@H]3[C@H](O)[C@@H](O)[C@@H](O[C@H]4[C@H](O)[C@@H](O)[C@@H](O[C@H]5[C@H](O)[C@@H](O)[C@@H](O[C@H]6[C@H](O)[C@@H](O)[C@@H](O[C@H]7[C@H](O)[C@@H](O)[C@@H](O[C@H]1[C@H](O)[C@H]2O)O[C@@H]7CO)O[C@@H]6CO)O[C@@H]5CO)O[C@@H]4CO)O[C@@H]3CO [α-cyclodextrin]
Small sample (50 mg) DSC
Details	molar heat capacity at constant pressure [J/K/mol]
288.15 K	1074.6
293.15 K	1113.2
298.15 K	1150
303.15 K	1164.1
308.15 K	1201.5
313.15 K	1212.6
318.15 K	1230.2
323.15 K	1259.3
328.15 K	1282.6
333.15 K	1305.3
338.15 K	1335.3
343.15 K	1364.6
348.15 K	1401.6
353.15 K	1442.6
358.15 K	1502.7

OC[C@H]1O[C@@H]2O[C@H]3[C@H](O)[C@@H](O)[C@@H](O[C@H]4[C@H](O)[C@@H](O)[C@@H](O[C@H]5[C@H](O)[C@@H](O)[C@@H](O[C@H]6[C@H](O)[C@@H](O)[C@@H](O[C@H]7[C@H](O)[C@@H](O)[C@@H](O[C@H]8[C@H](O)[C@@H](O)[C@@H](O[C@H]1[C@H](O)[C@H]2O)O[C@@H]8CO)O[C@@H]7CO)O[C@@H]6CO)O[C@@H]5CO)O[C@@H]4CO)O[C@@H]3CO [β-cyclodextrin]
Small sample (50 mg) DSC
Details	molar heat capacity at constant pressure [J/K/mol]
288.15 K	1253.4
293.15 K	1298.3
298.15 K	1341.3
303.15 K	1357.6
308.15 K	1401.3
313.15 K	1414.1
318.15 K	1434.7
323.15 K	1468.5
328.15 K	1495.7
333.15 K	1522.1
338.15 K	1557.1
343.15 K	1591.3
348.15 K	1634.4
353.15 K	1682.1
358.15 K	1752.1
